PMC11413853, “Discovery of VU6007496: Challenges in the Development of an M1 Positive Allosteric Modulator Backup Candidate” (ACS Chemical Neuroscience, 2024)
Where two headings read alike, the source gives them in different places. Blank lines part the entries; values can stand above or below the molecule they belong to.

Experiments:
[1] = Plasma protein binding, cyno; type: in vitro ADME; details: cynomolgus monkey, pH 7.4, read-out: fu,plasma cyno
Protocol: Plasma protein binding and Brain homogenate binding: Determination of fraction unbound (f u) in plasma was conducted in vitro via equilibrium dialysis using HTDialysis (HTD) membrane plates. The top half of the plate was filled with 100 uL of Dubelco’s Phosphate Buffered Saline, pH 7.4 (DPBS). Compounds were diluted into plasma from each species (5 µM final concentration), which was aliquoted in triplicate to the ‘bottom half’ of the prepared HTD plate wells. The HTD plate was sealed and incubated for 6 hours at 37 °C. Following incubation, each well (both top and bottom halves) were transferred (20 µL) to the corresponding wells of a 96-shallow-well (V-bottom) plate. […]
The unbound fraction (f u) was calculated following the equation below, and mean values for each species were calculated from 3 replicates.
A similar approach was used to determine the degree of brain homogenate binding, which employed the same methodology and procedure with the following modifications: 1) a final compound concentration of 1 μM was used, 2) naïve rat brains were homogenized in DPBS (1:3 composition of brain: DPBS, w/w) using a Mini-Bead Beater™ machine in order to obtain brain homogenate, which was then treated in the same manner as the plasma samples in the previously described plasma protein binding assay. Fraction unbound for both plasma and brain samples was determined using Equation 4. […]

[2] = system: CYP3A4, CYP1A2, CYP2C9 and CYP2D6; assay: CYP450 profile (summary over four isoforms); type: in vitro ADME; details: human; summary over the four isoforms; read-out: CYP450 IC50s against CYP3A4, CYP1A2, CYP2C9 and CYP2D6
[3] = IV/PO pharmacokinetics, rat; type: in vivo; details: rat (SD), dose iv/po 1/10 mg/kg; for clearance / Vd / half-life: Sprague-Dawley, plasma, 1 mg/kg; for clearance: read-out: CLp; for Vd: read-out: Vss; for half-life: read-out: elimination t1/2 (converted)
Protocol: We next conducted multispecies IV/PO PK in parallel as a potential discerning data set. […] With a strong desire to employ dog as the nonrodent safety species, the challenge to address the low %F in dog was enough to triage PAM 12 and focus on the advancement of 11 (Table 3). […]
Pharmacokinetic profiles in rats following oral single escalating doses Single escalating oral dosing in Sprague-Dawley rats was performed at Frontage Laboratories according to their non-GLP Standard Operating Procedure and IACUC protocols. In short, compounds were formulated in 10% Tween 80 in water and dosed at 10 mg/kg. At different times, arterial blood was collected from a femoral artery catheter, and compound concentration was determined in plasma by LC-MS/MS following their non-GLP protocol. PK parameters were determined using Phoenix WinNonlin software (version 6.3). […]

[4] = IV/PO pharmacokinetics, dog; type: in vivo, dog (beagle or mongrel); details: for clearance / Vd / half-life: plasma, 1 mg/kg; for clearance: read-out: CLp; for Vd: read-out: Vss; for half-life: read-out: elimination t1/2 (converted)
Description: We next conducted multispecies IV/PO PK in parallel as a potential discerning data set.

[5] = system: 4-strain Ames; assay: 4-strain Ames assay; details: with and without S9
[6] = system: cardiac ion channels; assay: Electrophysiology panel of cardiac ion channels (summary); type: cell-based; details: 10 μM; whole panel
Description: In a 4-strain Ames assay, with and without S9, both 11 and 12 were negative.
Table S2. Effects of VU6007496 on Ion Channel Current (Charles River Study 200609.WVN)
Ion Channel Conc Mean % Standard Standard n Individual Data
(μM) Inhibition Deviation Error Points (% Inhibition)

[7] = system: Melatonin MT1; assay: Eurofins radioligand binding; parameters: species or system Human; details: specific binding
[8] = Rat plasma and brain exposure, 100 mg/kg i.p., 3 h; type: in vivo; details: ip; for Kp at 3 h: brain and plasma, 100 mg/kg i.p.; for concentration at 3 h: 100 mg/kg i.p. in 30% captisol
Description: Due to the prevalence of metabolite A (VU6036463, 24) in both in vitro preparations and in vivo, we first synthesized and characterized 24. Utilizing intermediate 19 (Scheme 3), a Suzuki coupling with benzyl chloride 28 afforded a mixture of N-Boc protected analog 29 and N-H analog 29a in moderate isolated yield. Hydrolysis of the nitriles to the carboxylic acid, followed by a HATU-mediated coupling with tetrahydro-2H-pyran-4-amine delivered 24 in 81% yield over the two steps.[21] In our kinetic assays, 24 was an “active” metabolite, with the profile of an M1 ago-PAM. […] To ascertain if 24 could be the source of the adverse cholinergic events in rats, we dosed 11 and 24, in parallel, at a dose of 100 mg/kg i.p. in 30% captisol and prepared plasma and brain samples at a 3-h time point to determine brain exposure of the M1 ago-PAM 24. In this study, 11 achieved a total plasma concentration of 3.6 μM and a total brain concentration of 0.93 μM (Kp = 0.26).

[9] = brain, read-out: total brain concentration
[10] = plasma, read-out: total plasma concentration

SMILES: Cn1ccc(-c2ccc(Cc3cc(C(=O)NC4CCOCC4)nc4ccsc34)cc2)n1 [compound 12]
fraction unbound at 6 h, 5 µM [1]: 0.009
IC50 [2]: > 16 µM
clearance [3]: 33 mL/min/kg
Vd [3]: 8.2 L/kg
half-life [3]: 318 min
F (%) po [3]: 100%
F (%) po ([4]; dose iv/po 1/3 mg/kg): 9%
clearance ([4]; dose iv/po 1/3 mg/kg): 1.3 mL/min/kg
Vd ([4]; dose iv/po 1/3 mg/kg): 4 L/kg
half-life ([4]; dose iv/po 1/3 mg/kg): 2200 min
Ames result [5]: negative
inhibition of cardiac ion channels [6]: < 17%
% Inhibition at 10 µM [7]: 70%

Kp at 3 h [8]: 0.07
concentration at 3 h [8, 9]: 80 nM
concentration at 3 h [8, 10]: 1200 nM
SMILES: Cn1ccc2nc(C(=O)NC3CCOCC3)cc(Cc3ccc(-c4cc[nH]n4)cc3)c21 [compound 24]

SMILES: Cn1ccc(-c2ccc(Cc3cc(C(=O)NC4CCOCC4)nc4ccn(C)c34)cc2)n1 [compound 11]
fraction unbound at 6 h, 5 µM [1]: 0.026
IC50 [2]: > 16 µM
Kp at 3 h [8]: 0.26
concentration at 3 h [8, 9]: 930 nM
concentration at 3 h [8, 10]: 3600 nM
clearance [3]: 26 mL/min/kg
Vd [3]: 3.2 L/kg
half-life [3]: 366 min
F (%) po [3]: 66%
F (%) po ([4]; dose iv/po 1/5 mg/kg): 35%
clearance ([4]; dose iv/po 1/5 mg/kg): 2.4 mL/min/kg
Vd ([4]; dose iv/po 1/5 mg/kg): 2.2 L/kg
half-life ([4]; dose iv/po 1/5 mg/kg): 768 min
Ames result [5]: negative
inhibition of cardiac ion channels [6]: < 17%
% Inhibition at 10 µM [7]: 7%
